# According to US8916501B2, “Herbicidal compositions” (BASF SE, priority 2010, dated 2014):
# What was measured:
# Conditions in all cases: scale 0 to 100
# SETFA [1] = experiment: greenhouse pre-emergence treatment, herbicidal action against SETFA; format: in vivo, Setaria faberi
# Description: (§1) The seeds of the test plants were sown separately for each species. For the pre-emergence treatment, the active ingredients, which had been suspended or emulsified in water, were applied directly after sowing by means of finely distributing nozzles. The containers were irrigated gently to promote germination and growth and subsequently covered with transparent plastic hoods until the plants had emerged. This cover caused uniform germination of the test plants, unless this has been impaired by the active ingredients. The respective benzoxazinone of formula I was formulated as a 5% by weight strength emulsion concentrate, and the safener of formula II as a 5% by weight emulsion concentrate. Optional component C can be used in its appropriate available formulation type. The benzoxazinone of formula I, the safener of formula II, and optional component C were introduced to the spray liquid with the amount of solvent system used for applying the active compound. The test period extended over 20 days. During this time, the plants were tended, and their response to the treatments with active compound was evaluated. Depending on the species, the plants were kept at 10-25° C. or 20-35° C. During the test period the plants were tended, and their response to the individual treatments was evaluated. Evaluation was carried out using a scale from 0 to 100. 100 means no emergence of the plants, or complete destruction of at least the aerial moieties, and 0 means no damage, or normal course of growth. A good herbicidal activity is given at values of at least 70 and a very good herbicidal activity is given at values of at least 85.
# TRZAW = experiment: greenhouse pre-emergence treatment, damage to crop plant TRZAW; format: in vivo
# Description: as §1, with “85. A safener action is present if the damage to the crop plant caused by a mixture according to the present invention which contains a benzoxazinone of formula I and a safener of formula II is less than the damage caused when the benzoxazinone of formula I (optionally in mixture with a further herbicide C) according to the present invention is used without the safener of formula II.” for “85.”
# ORYSA [2] = experiment: greenhouse post-emergence treatment, damage to crop plant ORYSA; format: in vivo, Oryza sativa
# Description: (§2) The seeds of the test plants were sown separately for each species. For the post-emergence treatment, the test plants were first grown to a height of 1 to 15 cm, depending on the plant habit, and only then treated with the active ingredients which had been suspended or emulsified in water. For this purpose, the test plants were either sown directly and grown in the same containers, or they were first grown separately as seedlings and transplanted into the test containers a few days prior to treatment. The respective benzoxazinone of formula I was formulated as a 5% by weight strength emulsion concentrate, and the safener of formula II as a 5% by weight emulsion concentrate. Optional component C can be used in its appropriate available formulation type. The benzoxazinone of formula I, the safener of formula II, and optional component C were introduced to the spray liquid with the amount of solvent system used for applying the active compound. The test period extended over 20 days. During this time, the plants were tended, and their response to the treatments with active compound was evaluated. Depending on the species, the plants were kept at 10-25° C. or 20-35° C. During the test period the plants were tended, and their response to the individual treatments was evaluated. Evaluation was carried out using a scale from 0 to 100. […]
# ZEAMX = experiment: greenhouse pre-emergence treatment, damage to crop plant ZEAMX; format: in vivo, Zea mays
# Description: as §1, with “85. A safener action is present if the damage to the crop plant caused by a mixture according to the present invention which contains a benzoxazinone of formula I and a safener of formula II is less than the damage caused when the benzoxazinone of formula I (optionally in mixture with a further herbicide C) according to the present invention is used without the safener of formula II.” for “85.”
# ORYSA [3] = experiment: greenhouse pre-emergence treatment, damage to crop plant ORYSA; format: in vivo, Oryza sativa
# Description: as §1, with “85. A safener action is present if the damage to the crop plant caused by a mixture according to the present invention which contains a benzoxazinone of formula I and a safener of formula II is less than the damage caused when the benzoxazinone of formula I (optionally in mixture with a further herbicide C) according to the present invention is used without the safener of formula II.” for “85.”
# SETFA [4] = experiment: greenhouse post-emergence treatment, herbicidal action against SETFA; format: in vivo, Setaria faberi
# Description: as §2
# [5] = Example 1, II.a.12 150 g/ha alone
# [6] = Example 2, II.a.12 75 g/ha alone
# [7] = Example 3, II.a.12 150 g/ha alone
# [8] = Example 4, II.a.12 75 g/ha alone
# [9] = Example 1, I.a.35 50 g/ha alone
# [10] = Example 2, I.a.35 25 g/ha alone
# [11] = Example 3, I.a.35 12.5 g/ha alone
# [12] = Example 4, I.a.35 25 g/ha alone
compound,measurement,setting,value
CNC(=O)Nc1ccc(S(=O)(=O)NC(=O)c2ccccc2OC)cc1 [II.a.12],herbicidal action against SETFA,SETFA [1]; [5],0
same,herbicidal action against SETFA,SETFA [1]; [6],0
same,herbicidal action against SETFA,SETFA [1]; [7],0
same,damage to crop plant TRZAW,TRZAW; [5],0
same,damage to crop plant TRZAW,TRZAW; [6],0
same,damage to crop plant TRZAW,TRZAW; [7],0
same,damage to crop plant ORYSA,ORYSA [2]; [8],0
same,damage to crop plant ZEAMX,ZEAMX; [5],0
same,damage to crop plant ZEAMX,ZEAMX; [6],0
same,damage to crop plant ZEAMX,ZEAMX; [7],0
same,damage to crop plant ORYSA,ORYSA [3]; [5],0
same,damage to crop plant ORYSA,ORYSA [3]; [6],0
same,damage to crop plant ORYSA,ORYSA [3]; [7],0
same,herbicidal action against SETFA,SETFA [4]; [8],0
"C#CCN1C(=O)C(F)(F)Oc2cc(F)c(-n3c(=O)n(C)c(=S)n(C)c3=O)cc21 [I.a.35, 1,5-dimethyl-6-thioxo-3-(2,2,7-trifluoro-3-oxo-4-(prop-2-ynyl)-3,4-dihydro-2H-benzo[b][1,4]oxazin-6-yl)-1,3,5-triazinane-2,4-dione]",herbicidal action against SETFA,SETFA [1]; [9],100
same,herbicidal action against SETFA,SETFA [1]; [10],100
same,herbicidal action against SETFA,SETFA [1]; [11],90
same,damage to crop plant TRZAW,TRZAW; [9],65
same,damage to crop plant TRZAW,TRZAW; [10],60
same,damage to crop plant TRZAW,TRZAW; [11],45
same,damage to crop plant ORYSA,ORYSA [2]; [12],60
same,damage to crop plant ZEAMX,ZEAMX; [9],65
same,damage to crop plant ZEAMX,ZEAMX; [10],40
same,damage to crop plant ZEAMX,ZEAMX; [11],25
same,damage to crop plant ORYSA,ORYSA [3]; [9],65
same,damage to crop plant ORYSA,ORYSA [3]; [10],40
same,damage to crop plant ORYSA,ORYSA [3]; [11],30
same,herbicidal action against SETFA,SETFA [4]; [12],100
